Data published in patent publication US4119710A, “Bronchospasmolytic 1-(p-amino-phenyl)-2-amino-ethanols-(1) and salts” (Boehringer Ingelheim GmbH, priority 1972, dated 1978).
Structures can show the parent of a compound that is named as a salt.

Tests used:
β1 -receptors = target: T1, β1 -receptors (Felis catus, UniProt Q9TST6); assay: β1-blocking activity: antagonism to tachycardia provoked by N-isopropyl-noradrenalin sulfate in anesthetized cats; type: in vivo; details: cat, iv, d(+)-isomers, tachycardia by 1.0 γ/kg i.v. N-isopropyl-noradrenalin sulfate (Table III), read-out: Blocking Action on β1 -receptors ED50
T1 construct: tested on anesthetized cats; from tissue; host or cells: living anesthetized cat, heart (heart rate)
T1 sequence (Q9TST6 whole entry): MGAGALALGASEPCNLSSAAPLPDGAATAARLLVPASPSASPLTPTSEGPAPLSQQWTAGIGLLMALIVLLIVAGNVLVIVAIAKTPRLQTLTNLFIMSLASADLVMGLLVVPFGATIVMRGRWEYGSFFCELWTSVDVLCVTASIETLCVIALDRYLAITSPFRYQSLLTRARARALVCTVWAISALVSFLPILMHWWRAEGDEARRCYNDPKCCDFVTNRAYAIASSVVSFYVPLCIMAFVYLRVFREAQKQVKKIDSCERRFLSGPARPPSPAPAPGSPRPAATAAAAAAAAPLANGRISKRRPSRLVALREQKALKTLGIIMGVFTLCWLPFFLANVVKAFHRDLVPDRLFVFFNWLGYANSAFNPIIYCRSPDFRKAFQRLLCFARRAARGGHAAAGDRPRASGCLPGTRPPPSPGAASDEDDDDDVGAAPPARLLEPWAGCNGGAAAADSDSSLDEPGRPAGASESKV
Experimental: (§1) The compounds of this invention were tested for toxicity and with regard to their action on the β-receptors in warm-blooded animals, such as cats and guinea pigs, by the methods described below, and the following test results were obtained for representative species of the genus, where
The β1 -blocking activity was tested on anesthetized cats as antagonism to tachycardia provoked by a standard dose of 1.0 γ/kg i.v. of N-isopropyl-noradrenalin sulfate. From the average percentage reduction in heart rate acceleration caused by N-isopropyl-noradrenalin sulfate, obtained by various doses of the test compound in question, a median effective dose (ED50) was determined by graphic extrapolation (see Tables II and III).

β2 -receptors = target: T2, β2 -receptors (Cavia porcellus, UniProt Q8K4Z4); assay: β2-blocking activity: antagonism to broncholytic activity of N-isopropyl-noradrenalin sulfate in anesthetized guinea pigs (Konzett-Rossler); type: in vivo; details: guinea pig, iv, d(+)-isomers, 5 γ/kg i.v. N-isopropyl-noradrenalin sulfate after 20 γ/kg i.v. acetylcholine (Table III), read-out: Blocking Action on β2 -receptors ED50
T2 construct: tested on anesthetized guinea pigs; from tissue; host or cells: living anesthetized guinea pig, airways (Konzett-Rossler)
T2 sequence (Q8K4Z4 whole entry): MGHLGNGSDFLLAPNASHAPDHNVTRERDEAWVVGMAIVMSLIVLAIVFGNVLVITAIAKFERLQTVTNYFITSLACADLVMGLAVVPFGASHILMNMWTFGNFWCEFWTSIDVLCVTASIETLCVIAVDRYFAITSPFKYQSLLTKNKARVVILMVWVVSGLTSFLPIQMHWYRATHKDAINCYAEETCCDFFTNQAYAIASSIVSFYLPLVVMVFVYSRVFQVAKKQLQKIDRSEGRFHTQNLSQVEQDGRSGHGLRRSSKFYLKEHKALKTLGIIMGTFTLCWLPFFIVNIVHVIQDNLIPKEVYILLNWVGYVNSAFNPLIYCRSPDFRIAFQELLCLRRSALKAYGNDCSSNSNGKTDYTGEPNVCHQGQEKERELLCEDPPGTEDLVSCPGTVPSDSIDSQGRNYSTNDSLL
Experimental: as §1
The β2 -blocking activity was tested on anesthetized guinea pigs as antagonism to the broncholytic activity which is observed upon administration of 5 γ/kg body weight i.v. of N-isopropyl-noradrenalin sulfate in the test arrangement according to Konzett-Rossler, following the inducement of a bronchospasm caused by a standard dose of 20 γ/kg body weight i.v. of acetylcholine (see Table III).

[1] = acute toxicity in mice (LD50, Litchfield and Wilcoxon); details: mouse, in vivo, iv, groups of 10, i.v., deaths within 14 days, d(+)-isomers (Table III), read-out: acute toxicity LD50 (Table III)
Experimental: as §1
The acute toxicity of the compounds was determined on groups of 10 mice.

In the case of `CC(C)(C)NCC(O)c1cc(F)c(N)c(Br)c1` (single isomer, unassigned) [A-d(+), d-1-(4'-amino-3'-bromo-5'-fluoro-phenyl)-2-tert.butylamino-ethanol hydrochloride], the ED50 (β1 -receptors) is reported as 0.0084 mg/kg, the ED50 (β2 -receptors) is reported as > 2 mg/kg and the LD50 at 336 h [1] is reported as 37.2 mg/kg.
